Test results: publication PMC4508061, “Selectivity Profiling and Biological Activity of Novel β-Carbolines as Potent and Selective DYRK1 Kinase Inhibitors” (PLoS ONE, 2015)

Assays:
[1] = target: FER (Homo sapiens, UniProt P16591); assay: ProQinase radiometric kinase panel; conditions: mean of 2 exp.
[2] = target: ACV-RL1 (Homo sapiens, UniProt P37023); assay: ProQinase radiometric kinase panel; conditions: mean of 2 exp.
[3] = target: EGF-R (Homo sapiens, UniProt P00533); assay: ProQinase radiometric kinase panel; conditions: mean of 2 exp.
[4] = target: LIMK1 (Homo sapiens, UniProt P53667); assay: ProQinase radiometric kinase panel; conditions: mean of 2 exp.
Procedure: Gini coefficients were calculated and the Lorenz curve (Fig 3B) was plotted by applying the Microsoft Excel spreadsheet provided by Graczyk [44].
radiometric protein kinase assays.

[5] = target: NEK4 (Homo sapiens, UniProt P51957); assay: ProQinase radiometric kinase panel; conditions: mean of 2 exp.
[6] = target: ERK2 (Homo sapiens, UniProt P28482); assay: ProQinase radiometric kinase panel; conditions: mean of 2 exp.
Sequence of ERK2 (P28482 whole entry): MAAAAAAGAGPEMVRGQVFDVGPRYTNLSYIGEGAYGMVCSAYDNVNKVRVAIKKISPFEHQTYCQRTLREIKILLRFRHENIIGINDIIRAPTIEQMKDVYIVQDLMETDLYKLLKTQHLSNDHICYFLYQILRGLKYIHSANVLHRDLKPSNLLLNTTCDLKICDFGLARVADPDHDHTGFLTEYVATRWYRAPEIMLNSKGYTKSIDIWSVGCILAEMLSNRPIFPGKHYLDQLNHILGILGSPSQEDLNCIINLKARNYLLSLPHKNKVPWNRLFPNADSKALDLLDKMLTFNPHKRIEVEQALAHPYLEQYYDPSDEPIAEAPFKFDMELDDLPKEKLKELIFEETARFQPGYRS

[7] = target: BLK (Homo sapiens, UniProt P51451); assay: ProQinase radiometric kinase panel; conditions: mean of 2 exp.
[8] = target: CDK1/CycA2 (Homo sapiens, UniProt P06493); assay: ProQinase radiometric kinase panel; conditions: mean of 2 exp.
[9] = target: MKNK1 (Homo sapiens, UniProt Q9BUB5); assay: ProQinase radiometric kinase panel; conditions: mean of 2 exp.
[10] = Cell viability XTT assay; format: cell-based; conditions: human, HeLa cells, read-out: Viability of treated cells relative to untreated control
[11] = test system: HeLa cells; assay: Cell viability XTT assay; format: cell-based; conditions: up to 10 μM, 3 days
[12] = target: FGF-R4 (Homo sapiens, UniProt P22455); assay: ProQinase radiometric kinase panel; conditions: mean of 2 exp.
[13] = target: CHK1 (Homo sapiens, UniProt O14757); assay: ProQinase radiometric kinase panel; conditions: mean of 2 exp.
[14] = target: PYK2 (Homo sapiens, UniProt Q14289); assay: ProQinase radiometric kinase panel; conditions: mean of 2 exp.
[15] = target: ZAK (Homo sapiens, UniProt Q9NYL2); assay: ProQinase radiometric kinase panel; conditions: mean of 2 exp.
Sequence of ZAK (Q9NYL2 whole entry): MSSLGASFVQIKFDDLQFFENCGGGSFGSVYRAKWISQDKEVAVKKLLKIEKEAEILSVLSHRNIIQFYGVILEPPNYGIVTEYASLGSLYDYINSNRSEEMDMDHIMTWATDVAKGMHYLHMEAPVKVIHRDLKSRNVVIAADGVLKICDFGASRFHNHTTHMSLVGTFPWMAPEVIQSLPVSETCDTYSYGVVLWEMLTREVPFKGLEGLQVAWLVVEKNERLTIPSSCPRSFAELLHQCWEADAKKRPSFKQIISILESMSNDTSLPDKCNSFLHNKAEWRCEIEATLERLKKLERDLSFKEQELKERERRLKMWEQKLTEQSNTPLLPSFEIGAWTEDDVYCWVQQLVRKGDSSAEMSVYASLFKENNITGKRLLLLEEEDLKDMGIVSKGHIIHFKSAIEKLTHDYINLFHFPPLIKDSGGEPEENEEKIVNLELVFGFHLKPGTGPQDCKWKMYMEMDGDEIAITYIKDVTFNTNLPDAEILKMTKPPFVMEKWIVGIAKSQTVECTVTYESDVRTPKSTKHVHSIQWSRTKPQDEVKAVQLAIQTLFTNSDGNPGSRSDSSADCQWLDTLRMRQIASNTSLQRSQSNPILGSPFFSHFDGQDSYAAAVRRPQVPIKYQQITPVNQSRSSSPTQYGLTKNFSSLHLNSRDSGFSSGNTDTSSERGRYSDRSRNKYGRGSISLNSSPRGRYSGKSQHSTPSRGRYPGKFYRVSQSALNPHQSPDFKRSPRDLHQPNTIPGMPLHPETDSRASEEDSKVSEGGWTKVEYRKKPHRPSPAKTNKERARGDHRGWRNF

[16] = target: SRPK1 (Homo sapiens, UniProt Q96SB4); assay: ProQinase radiometric kinase panel; conditions: mean of 2 exp.
Sequence of SRPK1 (Q96SB4 whole entry): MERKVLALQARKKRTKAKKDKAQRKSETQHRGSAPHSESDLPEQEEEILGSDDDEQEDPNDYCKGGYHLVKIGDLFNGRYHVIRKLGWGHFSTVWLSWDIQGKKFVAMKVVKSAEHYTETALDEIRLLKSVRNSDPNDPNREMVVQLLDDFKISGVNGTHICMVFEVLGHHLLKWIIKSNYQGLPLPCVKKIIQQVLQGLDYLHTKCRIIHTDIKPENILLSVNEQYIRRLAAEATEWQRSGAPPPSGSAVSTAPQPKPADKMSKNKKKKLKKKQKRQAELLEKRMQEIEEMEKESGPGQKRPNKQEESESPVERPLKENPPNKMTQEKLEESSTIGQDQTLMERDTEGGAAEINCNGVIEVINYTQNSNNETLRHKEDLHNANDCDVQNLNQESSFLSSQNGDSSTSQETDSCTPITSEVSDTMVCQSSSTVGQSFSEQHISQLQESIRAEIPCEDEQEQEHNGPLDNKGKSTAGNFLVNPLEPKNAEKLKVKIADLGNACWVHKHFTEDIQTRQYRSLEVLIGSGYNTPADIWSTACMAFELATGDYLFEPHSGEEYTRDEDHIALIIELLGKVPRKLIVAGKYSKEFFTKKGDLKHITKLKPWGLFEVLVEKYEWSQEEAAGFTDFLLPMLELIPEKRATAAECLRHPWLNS

[17] = target: PKC-beta2 (Homo sapiens, UniProt P05771); assay: ProQinase radiometric kinase panel; conditions: mean of 2 exp.
[18] = target: VEGF-R1 (Homo sapiens, UniProt P17948); assay: ProQinase radiometric kinase panel; conditions: mean of 2 exp.
[19] = target: LTK (Homo sapiens, UniProt P29376); assay: ProQinase radiometric kinase panel; conditions: mean of 2 exp.
[20] = target: IKK-beta (Homo sapiens, UniProt O14920); assay: ProQinase radiometric kinase panel; conditions: mean of 2 exp.
[21] = target: FGF-R3 (Homo sapiens, UniProt P22607); assay: ProQinase radiometric kinase panel; conditions: mean of 2 exp.
[22] = target: CHK2 (Homo sapiens, UniProt O96017); assay: ProQinase radiometric kinase panel; conditions: mean of 2 exp.
[23] = target: PRK1 (Homo sapiens, UniProt Q16512); assay: ProQinase radiometric kinase panel; conditions: mean of 2 exp.
[24] = target: ACK1 (Homo sapiens, UniProt Q07912); assay: ProQinase radiometric kinase panel; conditions: mean of 2 exp.
[25] = target: BRSK1 (Homo sapiens, UniProt Q8TDC3); assay: ProQinase radiometric kinase panel; conditions: mean of 2 exp.
[26] = target: MAP3K1 (Homo sapiens, UniProt Q13233); assay: ProQinase radiometric kinase panel; conditions: mean of 2 exp.
[27] = target: ERBB4 (Homo sapiens, UniProt Q15303); assay: ProQinase radiometric kinase panel; conditions: mean of 2 exp.
[28] = target: MUSK (Homo sapiens, UniProt O15146); assay: ProQinase radiometric kinase panel; conditions: mean of 2 exp.
[29] = target: PKC-mu (Homo sapiens, UniProt Q15139); assay: ProQinase radiometric kinase panel; conditions: mean of 2 exp.
[30] = target: FRK (Homo sapiens, UniProt P42685); assay: ProQinase radiometric kinase panel; conditions: mean of 2 exp.
[31] = target: INSR-R (Homo sapiens, UniProt P14616); assay: ProQinase radiometric kinase panel; conditions: mean of 2 exp.
[32] = target: EPHA7 (Homo sapiens, UniProt Q15375); assay: ProQinase radiometric kinase panel; conditions: mean of 2 exp.
[33] = target: CDK1/CycE1 (Homo sapiens, UniProt P06493); assay: ProQinase radiometric kinase panel; conditions: mean of 2 exp.
[34] = target: ACV-R1B (Homo sapiens, UniProt P36896); assay: ProQinase radiometric kinase panel; conditions: mean of 2 exp.
Sequence of ACV-R1B (P36896 24-505): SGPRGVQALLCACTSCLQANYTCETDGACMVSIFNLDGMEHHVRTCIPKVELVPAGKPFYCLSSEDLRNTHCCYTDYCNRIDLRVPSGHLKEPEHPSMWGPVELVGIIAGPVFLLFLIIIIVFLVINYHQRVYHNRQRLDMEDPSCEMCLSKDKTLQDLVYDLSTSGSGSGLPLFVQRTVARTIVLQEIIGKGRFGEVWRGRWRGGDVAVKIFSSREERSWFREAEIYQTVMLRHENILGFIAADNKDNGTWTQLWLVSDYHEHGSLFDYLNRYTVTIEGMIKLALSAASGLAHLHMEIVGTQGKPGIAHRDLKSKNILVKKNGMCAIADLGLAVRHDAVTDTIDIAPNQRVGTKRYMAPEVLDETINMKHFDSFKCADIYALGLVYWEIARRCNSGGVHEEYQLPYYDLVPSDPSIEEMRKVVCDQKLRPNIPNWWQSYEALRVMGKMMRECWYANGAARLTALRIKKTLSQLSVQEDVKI

[35] = target: HRI (Homo sapiens, UniProt Q9BQI3); assay: ProQinase radiometric kinase panel; conditions: mean of 2 exp.
[36] = target: NEK11 (Homo sapiens, UniProt Q8NG66); assay: ProQinase radiometric kinase panel; conditions: mean of 2 exp.
[37] = target: RIPK5 (Homo sapiens, UniProt Q6XUX3); assay: ProQinase radiometric kinase panel; conditions: mean of 2 exp.
Sequence of RIPK5 (Q6XUX3 whole entry): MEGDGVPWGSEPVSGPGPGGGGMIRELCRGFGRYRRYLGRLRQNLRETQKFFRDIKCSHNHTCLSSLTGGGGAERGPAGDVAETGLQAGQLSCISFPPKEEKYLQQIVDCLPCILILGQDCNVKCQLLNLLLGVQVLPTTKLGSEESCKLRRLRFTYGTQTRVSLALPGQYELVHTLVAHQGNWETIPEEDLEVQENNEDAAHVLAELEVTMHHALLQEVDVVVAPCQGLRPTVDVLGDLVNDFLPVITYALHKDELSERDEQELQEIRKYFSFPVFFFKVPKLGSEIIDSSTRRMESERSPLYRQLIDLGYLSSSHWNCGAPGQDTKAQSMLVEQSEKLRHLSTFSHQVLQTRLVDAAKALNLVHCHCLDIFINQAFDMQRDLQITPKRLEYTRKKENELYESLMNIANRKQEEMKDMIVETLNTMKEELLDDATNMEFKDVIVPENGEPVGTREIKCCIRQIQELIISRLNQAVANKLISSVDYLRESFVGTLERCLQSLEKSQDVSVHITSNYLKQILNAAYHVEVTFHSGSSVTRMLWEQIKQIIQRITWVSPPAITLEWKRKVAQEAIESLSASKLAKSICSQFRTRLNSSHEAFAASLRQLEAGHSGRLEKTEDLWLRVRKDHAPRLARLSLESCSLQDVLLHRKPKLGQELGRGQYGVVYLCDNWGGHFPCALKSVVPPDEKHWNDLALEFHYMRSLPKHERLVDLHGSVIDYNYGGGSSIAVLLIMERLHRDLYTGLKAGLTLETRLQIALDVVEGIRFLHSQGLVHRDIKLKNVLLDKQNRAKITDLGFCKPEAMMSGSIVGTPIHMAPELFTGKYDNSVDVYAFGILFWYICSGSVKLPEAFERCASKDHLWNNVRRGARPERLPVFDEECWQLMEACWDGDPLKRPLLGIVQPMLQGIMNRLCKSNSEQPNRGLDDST

[38] = target: EIF2AK3 (Homo sapiens, UniProt Q9NZJ5); assay: ProQinase radiometric kinase panel; conditions: mean of 2 exp.
Sequence of EIF2AK3 (Q9NZJ5 30-1116): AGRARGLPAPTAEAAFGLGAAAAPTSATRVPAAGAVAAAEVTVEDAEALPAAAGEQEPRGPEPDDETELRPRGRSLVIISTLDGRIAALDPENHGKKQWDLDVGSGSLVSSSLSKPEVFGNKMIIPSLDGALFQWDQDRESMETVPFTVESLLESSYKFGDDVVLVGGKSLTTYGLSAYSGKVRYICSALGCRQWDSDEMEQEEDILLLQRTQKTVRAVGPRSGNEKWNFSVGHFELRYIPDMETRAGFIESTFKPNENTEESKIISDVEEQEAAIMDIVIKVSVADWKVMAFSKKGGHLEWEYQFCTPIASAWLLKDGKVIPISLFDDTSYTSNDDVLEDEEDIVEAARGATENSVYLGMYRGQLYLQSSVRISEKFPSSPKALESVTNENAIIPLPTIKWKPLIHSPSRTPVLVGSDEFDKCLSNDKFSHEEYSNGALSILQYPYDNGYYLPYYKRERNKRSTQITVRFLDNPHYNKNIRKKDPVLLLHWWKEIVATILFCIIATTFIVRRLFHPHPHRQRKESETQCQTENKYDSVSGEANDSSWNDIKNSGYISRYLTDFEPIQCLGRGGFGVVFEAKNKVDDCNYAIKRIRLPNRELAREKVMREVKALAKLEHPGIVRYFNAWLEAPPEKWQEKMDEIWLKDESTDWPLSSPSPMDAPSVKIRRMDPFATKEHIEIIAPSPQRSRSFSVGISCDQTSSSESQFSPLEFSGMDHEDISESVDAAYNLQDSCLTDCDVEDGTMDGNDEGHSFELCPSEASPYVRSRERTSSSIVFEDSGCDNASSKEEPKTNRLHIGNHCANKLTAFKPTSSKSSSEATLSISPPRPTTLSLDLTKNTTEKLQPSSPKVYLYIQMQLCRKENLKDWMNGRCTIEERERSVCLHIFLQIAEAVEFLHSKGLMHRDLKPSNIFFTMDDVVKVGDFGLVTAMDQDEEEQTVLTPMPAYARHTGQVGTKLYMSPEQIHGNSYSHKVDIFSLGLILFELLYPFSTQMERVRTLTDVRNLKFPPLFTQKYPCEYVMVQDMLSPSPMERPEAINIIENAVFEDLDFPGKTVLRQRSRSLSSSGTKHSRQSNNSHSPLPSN

[39] = target: CK1-gamma2 (Homo sapiens, UniProt P78368); assay: ProQinase radiometric kinase panel; conditions: mean of 2 exp.

Sequence of ACV-RL1 (P37023 22-503): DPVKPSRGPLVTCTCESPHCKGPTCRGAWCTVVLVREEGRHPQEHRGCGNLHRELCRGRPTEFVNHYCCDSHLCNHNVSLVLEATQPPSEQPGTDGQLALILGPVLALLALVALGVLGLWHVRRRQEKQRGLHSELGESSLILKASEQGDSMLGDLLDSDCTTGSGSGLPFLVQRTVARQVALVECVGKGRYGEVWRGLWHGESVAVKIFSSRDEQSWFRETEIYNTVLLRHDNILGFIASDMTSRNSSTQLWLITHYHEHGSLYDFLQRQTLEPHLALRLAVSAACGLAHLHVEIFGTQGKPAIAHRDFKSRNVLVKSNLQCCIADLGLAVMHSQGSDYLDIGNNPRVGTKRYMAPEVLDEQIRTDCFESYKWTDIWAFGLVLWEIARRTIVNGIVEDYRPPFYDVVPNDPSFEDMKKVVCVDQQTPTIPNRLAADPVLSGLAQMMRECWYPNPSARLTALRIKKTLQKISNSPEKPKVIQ

COc1ccc2c3ccnc(Cl)c3n(CC#N)c2c1 [AnnH75]
residual activity at 1 µM, Mean [1]: 93 % of control
residual activity at 1 µM, Mean [2]: 91 % of control
residual activity at 1 µM, Mean [3]: 104 % of control
residual activity at 1 µM, Mean [4]: 57 % of control
residual activity at 1 µM, Mean [5]: 98 % of control
residual activity at 1 µM, Mean [6]: 87 % of control
residual activity at 1 µM, Mean [7]: 100 % of control
residual activity at 1 µM, Mean [8]: 79 % of control
residual activity at 1 µM, Mean [9]: 103 % of control
viability at 3 days, 1 µM ([10]; 1 μM): 100%
viability at 3 days, 3 µM ([10]; 3 μM): 93%
cytotoxicity [11]: minimal cytotoxicity
residual activity at 1 µM, Mean [12]: 98 % of control
residual activity at 1 µM, Mean [13]: 100 % of control
residual activity at 1 µM, Mean [14]: 110 % of control
residual activity at 1 µM, Mean [15]: 94 % of control
residual activity at 1 µM, Mean [16]: 111 % of control
residual activity at 1 µM, Mean [17]: 108 % of control
residual activity at 1 µM, Mean [18]: 89 % of control
residual activity at 1 µM, Mean [19]: 99 % of control
residual activity at 1 µM, Mean [20]: 91 % of control
residual activity at 1 µM, Mean [21]: 107 % of control
residual activity at 1 µM, Mean [22]: 102 % of control
residual activity at 1 µM, Mean [23]: 94 % of control
residual activity at 1 µM, Mean [24]: 97 % of control
residual activity at 1 µM, Mean [25]: 107 % of control
residual activity at 1 µM, Mean [26]: 97 % of control
residual activity at 1 µM, Mean [27]: 90 % of control
residual activity at 1 µM, Mean [28]: 101 % of control
residual activity at 1 µM, Mean [29]: 100 % of control
residual activity at 1 µM, Mean [30]: 94 % of control
residual activity at 1 µM, Mean [31]: 97 % of control
residual activity at 1 µM, Mean [32]: 107 % of control
residual activity at 1 µM, Mean [33]: 93 % of control
residual activity at 1 µM, Mean [34]: 97 % of control
residual activity at 1 µM, Mean [35]: 101 % of control
residual activity at 1 µM, Mean [36]: 94 % of control
residual activity at 1 µM, Mean [37]: 91 % of control
residual activity at 1 µM, Mean [38]: 99 % of control
residual activity at 1 µM, Mean [39]: 82 % of control
